“And” between values parts separate entries of the source, which are not always exact repeats. Identical values can stand only once. Like-named read-outs stand apart in the source and are kept apart here.
Columns and labels:
[1] = Metabolic stability in mouse liver microsomes (MLM) with or without ANF; format: in vitro ADME; conditions: for half-life at 1 μM / microsomal CLint at 1 μM: CD-1, mouse, liver microsomes, 1 μM compound; for microsomal CLint at 1 μM: read-out: CLint(mic)
Procedure: Finally, we subjected the most promising derivatives to metabolic stability studies in mouse liver microsomes (MLMs), a validated model for understanding phase I metabolism of drugs (Table 1). To investigate whether the analogues would be susceptible to CYPs metabolism, we repeated these tests in the presence of 3 μM α-naphthoflavone (ANF). ANF is a well-known inhibitor of CYP1A enzymes, which is responsible for the CYP oxidative metabolism of naphthalene ring in ezutromid. […] These findings support the strategy that BCHep substitution mitigates the metabolic liabilities associated with ezutromid, by both preserving metabolic stability and avoiding CYP1A-mediated metabolism. [table] page 148: Fig.S178. […] Data have been obtained by RT-qPCR, and analysed using the 2-∆∆Ct method. Values obtained have been normalized to control (DMSO 1%), and presented as Mean + SEM (n=4). Statistical analysis was performed using the Ordinary One-way ANOVA followed by Dunnett’s multiple comparisons test against Vehicle Control: **: p < 0.005; ****: p < 0.0001 (grey). Metabolic stability Metabolic stability of compounds was assessed in Mouse Liver Microsomes (MLM) by WuxiAppTech (Shangai, China). Briefly, ACN solutions of test compounds ( 50a-c, i.a concentration 1μM) were dispensed in duplicate in a 96-well plate using an Apricot automation workstation. A solution of MLM (CD-1 Mouse, RILD, Cat. number LM-XS-02M) in PBS, with or without ANF, was added to each compound and plates were incubated at 37°C for 10 minutes. Reactions were then initiated by adding NADPH (i.a. 1mM, 0.5mM MgCl2) an d […] performed by adding stop solution before activating the reaction). NADPH -independent metabolism was assessed for each condition by replacing NADPH solution with PBS b uffer. Phenacetine, diclofenac and propafenone were used as controls. After proper incubation time, reaction was stopped by addition of ice -cold ACN and the plates were sealed, shaken and centrifuged at 1800 x g and 4°C for 20 minutes. The supernatant was then subjected to LC/MS-MS analysis for residual drug quantitation using 250 nM tolbutamide and 250 nM labetalol as internal standards. Half-life (t1/2) and CLint (Intrinsic clearance) were calculated using standard pharmacokinetic calculations based on the decay of drug concentration over time. […] The test compound 50b at 10 µM was incubated with liver microsomes in the presence of NADPH at […] The positive control, 7-ethoxycoumarin (7-EC) at 10 µM, was run concurrently to 147 (1 picture or pasted object on this page, not shown here)

[2] = Kinetic solubility assay in phosphate buffer; format: physicochemical; conditions: aqueous buffer, kinetic from dmso stock, 50 mM PB (pH 7.4), room temperature
Procedure: A 50 mM phosphate buffer (pH 7.4) was prepared by mixing 50 mM Na₂HPO₄ (3.549 g in 500 mL H₂O, pH ≈ 9.4) and 50 mM NaH ₂PO₄ (3.000 g in 500 mL H₂O, pH ≈ 4.5). To obtain the working buffer, 15 mL of Na₂HPO₄ solution was transferred into a 50 mL tube and adjusted to pH 7.4 ± 0.05 with 50 mM NaH₂PO₄. For solubility determination, 10 µL of compound stock solution was added to each well of a 96 -well plate, followed by 490 µL of buffer. Samples were vortexed for 2 min, shaken at 70 x g for 24 h at room temperature, and then centrifuged at 25 °C for 10 min (1800 x g). Supernatants were filtered through MultiScreen® Solvinert plates (Millipore/Merck) by centrifugation (≥ 5 min) and collected into a fresh 96 -well plate. Filtrate concentrations were quantified by LC-UV using an ACQUITY UPLC BEH C18 (1.7 µm, 50 mm) column with Mobile Phase A (0.1% TFA, 5 mM NH ₄OAc in H₂O/ACN 95:5 v/v) and Mobile Phase B (0.1% TFA, 5 mM NH ₄OAc in H₂O/ACN 5:95 v/v). […]
Compound ID Batch Media Kinetic Solubility Kinetic Solubility

[3] = biological target: T1, aryl hydrocarbon receptor (AhR) (Homo sapiens, UniProt P35869); experiment: AhR antagonism: CYP1A1 mRNA levels in HepG2 cells by RT-qPCR; format: cell-based; conditions: HepG2, 4 h incubation, 2^-ΔΔCt, normalized to DMSO control
T1 construct: Human hepatocellular carcinoma (HepG2) cell lines were acquired from Abcam; host or cells: HepG2 (human hepatocellular carcinoma)
T1 sequence (P35869 11-848): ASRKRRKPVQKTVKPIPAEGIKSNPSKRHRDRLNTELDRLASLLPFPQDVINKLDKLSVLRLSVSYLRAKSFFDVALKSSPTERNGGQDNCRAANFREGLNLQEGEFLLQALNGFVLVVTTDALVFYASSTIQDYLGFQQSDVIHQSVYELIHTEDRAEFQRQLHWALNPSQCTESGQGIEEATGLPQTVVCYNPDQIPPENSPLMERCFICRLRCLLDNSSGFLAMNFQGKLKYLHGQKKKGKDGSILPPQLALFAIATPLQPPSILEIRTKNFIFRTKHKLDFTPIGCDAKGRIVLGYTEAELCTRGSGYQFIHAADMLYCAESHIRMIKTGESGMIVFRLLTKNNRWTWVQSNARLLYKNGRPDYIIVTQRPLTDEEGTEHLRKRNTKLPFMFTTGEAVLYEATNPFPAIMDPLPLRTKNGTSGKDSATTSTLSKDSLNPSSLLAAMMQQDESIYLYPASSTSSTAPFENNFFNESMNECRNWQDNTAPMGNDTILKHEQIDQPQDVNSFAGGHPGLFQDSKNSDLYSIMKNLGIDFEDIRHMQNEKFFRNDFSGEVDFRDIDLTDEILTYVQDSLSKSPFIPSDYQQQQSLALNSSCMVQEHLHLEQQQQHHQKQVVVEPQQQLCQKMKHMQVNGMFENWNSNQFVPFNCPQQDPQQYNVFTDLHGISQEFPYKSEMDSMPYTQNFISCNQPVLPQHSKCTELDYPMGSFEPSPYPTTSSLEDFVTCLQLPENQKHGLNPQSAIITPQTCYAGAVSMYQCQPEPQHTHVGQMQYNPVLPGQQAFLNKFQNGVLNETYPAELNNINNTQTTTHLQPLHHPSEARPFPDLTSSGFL
Description: To this aim, we decided to measure the activity of ezutromid and the analogues against ezutromid's primary target, which has recently been identified as the aryl hydrocarbon receptor (AhR)[40]. This nuclear transcription factor plays a pivotal role in the metabolism of exogenous small molecules by targeting nuclear DNA to upregulate the expression of several isoforms of CYP enzymes responsible for the phase I metabolism of drugs, such as CYP1A isoforms (Fig. 5a). Therefore, AhR inhibition can be monitored by measuring the relative expression of these genes, with lower CYP1A1 mRNA levels being proportional to AhR antagonism.  Fig. 5 AhR antagonism and biological evaluation of BCHep analogues. a, A schematic representation of how ezutromid antagonizes AhR preventing its translocation into the nuclei and its subsequent upregulation of CYP1A1 enzyme. The inhibition of AhR can therefore be evaluated as a decrease in CYP1A1 expression. b, The evaluation of 50a-c as AhR antagonists compared with ezutromid. Data have been obtained by quantitative RT-qPCR and analysed using the 2^-ΔΔCt method. Values obtained have been normalized to control (DMSO 1%) and presented as mean + s.e.m. The IC50 values were determined from biological triplicates, except for compounds 50c and ezutromid, which were measured from duplicate experimental replicates.

[4] = MetID of 50b in liver microsomes (LC-UV-MS); format: in vitro ADME, human
Procedure: Fig.S178. Evaluation of 50a-c as AhR antagonists compared to Ezutromid. Data have been obtained by RT-qPCR, and analysed using the 2-∆∆Ct method. Values obtained have been normalized to control (DMSO 1%), and presented as Mean + SEM (n=4). Statistical analysis was performed using the Ordinary One-way ANOVA followed by Dunnett’s multiple comparisons test against Vehicle Control: **: p < 0.005; ****: p < 0.0001 (grey).
Metabolic stability of compounds was assessed in Mouse Liver Microsomes (MLM) by WuxiAppTech (Shangai, China). Briefly, ACN solutions of test compounds ( 50a-c, i.a concentration 1μM) were dispensed in duplicate in a 96-well plate using an Apricot automation workstation. […] NADPH -independent metabolism was assessed for each condition by replacing NADPH solution with PBS b uffer. […]
After proper incubation time, reaction was stopped by addition of ice -cold ACN and the plates were sealed, shaken and centrifuged at 1800 x g and 4°C for 20 minutes. The supernatant was then subjected to LC/MS-MS analysis for residual drug quantitation using 250 nM tolbutamide and 250 nM labetalol as internal standards. Half-life (t1/2) and CLint (Intrinsic clearance) were calculated using standard pharmacokinetic calculations based on the decay of drug concentration over time. […]
incubation system was reliable for metabolic study. After incubation, the samples were analyzed by LC - UV-MS. […]

utrophin = tested on: utrophin; parameters: method as in doi:10.1080/21678707.2018.1438261; conditions: patients with DMD, cited from earlier work
[5] = with α-naphthoflavone (ANF, CYP1A inhibitor) 3 μM, with 3 μM ANF (CYP1A inhibitor)
[6] = with α-naphthoflavone (ANF, CYP1A inhibitor) 3 μM, with 3 μM ANF

increase in metabolic half-life compared with ezutromid [1] | half-life at 1 μM ([1]; without ANF) [min] | microsomal CLint at 1 μM ([1]; without ANF) [µL/min/mg] | half-life at 1 μM [1, 5] [min] | microsomal CLint at 1 μM [1, 6] [µL/min/mg] | solubility kinetic at 24 h [2] | IC50 [3] [µM] | half-life compared with ezutromid [1] | Relative Abundance (UV Peak Area %Total) ([4]; 50b at 10 µM, human liver microsomes, NADPH, 37°C, 60 min) [%] | predominant biotransformation ([4]; metabolic profiling of 50b) | Structure (SMILES) | primary or secondary end points (utrophin; after 48 weeks of treatment) | levels of utrophin (utrophin; repeated dosing, 24-week data) | muscle fibre damage (utrophin; repeated dosing, 24-week data)
~ 2 fold | 94 ± 0.2 | 14.7 ± 0.1 | 108 ± 11 | 12.8 ± 1.4 | < 1.56 µM and < 0.552 µg/mL | 19 ± 18 |  |  |  | CCS(=O)(=O)c1ccc2oc(C34Cc5ccccc5C(C3)C4)nc2c1 [50a] |  |  | 
 | 40 ± 7 | 35.6 ± 7 | 42 ± 4 | 33.6 ± 2.7 | < 1.56 µM and < 0.552 µg/mL | 2.12 ± 0.3 | slight decrease | 66.02 | mono-oxygenation of the BCHep moiety | CCS(=O)(=O)c1ccc2oc(-c3ccc4c(c3)CC3CC4C3)nc2c1 [50b] |  |  | 
 | 48 ± 8 | 29.9 ± 4.9 | 56 ± 10 | 25.7 ± 4.6 |  | 13.1 ± 2 |  |  |  | CCS(=O)(=O)c1ccc2oc(-c3ccc4c(c3)C3CC(C4)C3)nc2c1 [50c] |  |  | 
 | 60 ± 5 | 23.3 ± 2 | 89 ± 6 | 15.8 ± 1.1 | < 1.56 µM and < 0.527 µg/mL | 0.27 |  |  |  | CCS(=O)(=O)c1ccc2oc(-c3ccc4ccccc4c3)nc2c1 [Ezutromid, ezutromid, reference compound] | failed to meet | increased | statistically significant reduction
